Results: patent US5512553A, “7-(substituted)-8-(substituted)-9-(substituted amino)-6-demethyl-6-deoxytetracyclines” (American Cyanamid Company, priority 1995, dated 1996)
Converted amounts (≈) assume the structure as drawn. Counter-ions that a name gives are not always drawn. Like-named read-outs stand apart in the source and are kept apart here.

Assays:
[1] = test system: S. aureus UBMS 90-3 (sensitive); assay: In vitro antibacterial evaluation, MIC by agar dilution; assay type: cell-based; conditions: Staphylococcus aureus
Method: (§1) Method for In Vitro Antibacterial Evaluation (Table I)
(§2) The minimum inhibitory concentration (MIC), the lowest concentration of the antibiotic which inhibits growth of the test organism, is determined by the agar dilution method using Muller-Hinton II agar (Baltimore Biological Laboratories). An inoculum density of 1-5×10^5 CFU/ml and an antibiotic concentration (32-≤0.015 μg/ml) is used. The plates are incubated for 18 hours at 35° C. in a forced air incubator. The test organisms comprise strains sensitive to tetracycline and genetically defined strains that are resistant to tetracycline, due to inability to bind bacterial ribosomes (tetM).

[2] = test system: S. aureus IVES 2943 (meth. resistant); assay: as above; assay type: cell-based; conditions: Staphylococcus aureus
Method: as §1, §2

[3] = test system: E. coli UBMS 88-2 (sensitive); assay: as above; assay type: cell-based; conditions: Escherichia coli
Method: as §1, §2

[4] = test system: S. aureus IVES 1983 (MP) (meth. resistant); assay: as above; assay type: cell-based; conditions: Staphylococcus aureus
Method: as §1, §2

[5] = test system: S. aureus SMITH (MP) (sensitive); assay: as above; assay type: cell-based; conditions: Staphylococcus aureus
Method: as §1, §2

[6] = test system: E. coli UBMS 89-2 (sensitive); assay: as above; assay type: cell-based; conditions: Escherichia coli, Muller-Hinton II agar, 18 hours at 35° C.
Method: as §1, §2

[7] = test system: S. haemol. AVAH 88-3; assay: as above; assay type: cell-based
Method: as §1, §2

[8] = test system: S. aureus ATCC 29213 (sensitive); assay: as above; assay type: cell-based; conditions: Staphylococcus aureus, ATCC29213; agar dilution, Muller-Hinton II agar, 18 hours at 35° C.; S. aureus ATCC 29213 (sensitive); read-out: MIC
Method: as §1, §2

[9] = test system: S. faecal. ATCC 29212; assay: as above; assay type: cell-based
Method: as §1, §2

[10] = test system: E. coli ATCC 25922; assay: as above; assay type: cell-based; conditions: Escherichia coli
Method: as §1, §2

[11] = test system: S. aureus UBMS 88-4 (sensitive); assay: as above; assay type: cell-based; conditions: Staphylococcus aureus
Method: as §1, §2

[12] = test system: Enteroc. spp. 12201; assay: as above; assay type: cell-based
Method: as §1, §2

[13] = test system: E. coli UBMS 89-1 (tetM); assay: microbe, parasite or virus in culture; assay type: cell-based; conditions: Escherichia coli, 18 h
Method: as §1, §2

[14] = test system: S. aureus UBMS 90-2 (tetM); assay: microbe, parasite or virus in culture; assay type: cell-based; conditions: Staphylococcus aureus, 18 h
Method: as §1, §2

[15] = test system: S. aureus UBMS 88-7 (tetK); assay: microbe, parasite or virus in culture; assay type: cell-based; conditions: Staphylococcus aureus, 18 h
Method: as §1, §2

[16] = test system: S. aureus UBMS 88-5 (tetM); assay: microbe, parasite or virus in culture; assay type: cell-based; conditions: Staphylococcus aureus, 18 h
Method: as §1, §2

[17] = test system: E. coli UBMS 88-1 (tetB); assay: microbe, parasite or virus in culture; assay type: cell-based; conditions: Escherichia coli, 18 h
Method: as §1, §2

[18] = test system: S. aureus UBMS 90-1 (tetM); assay: microbe, parasite or virus in culture; assay type: cell-based; conditions: Staphylococcus aureus, 18 h
Method: as §1, §2

[19] = test system: S30 extract from E. coli strain MRE 600 (tetracycline sensitive); assay: E. coli in vitro cell free protein translation system, Wild Type S30; assay type: biochemical; conditions: for % Inhibition Wild Type S30: 35S-methionine incorporation, 30 minutes at 37° C.
Source text: (§3) E. coli in Vitro protein Translation System (Table II)
(§4) An in vitro, cell free, protein translation system using extracts from E. coli strain MRE 600 (tetracycline sensitive) and a derivative of MRE 600 containing the tetM determinant has been developed based on literature methods J. M. Pratt, Coupled Transcription-translation in Prokaryotic Cell-free Systems, Transcription and Translation, a Practical Approach, (B. D. Hames and S. J. Higgins, eds) p. 179-209, IRL Press, Oxford-Washington, 1984!.
(§5) Using the system described above, the tetracycline compounds of the present invention are tested for their ability to inhibit protein synthesis in vitro. Briefly, each 10 μl reaction contains S30 extract (a whole extract) made from either tetracycline sensitive cells or an isogenic tetracycline resistant (tetM) strain, low molecular weight components necessary for transcription and translation (i.e., ATP and GTP), a mix of 19 amino acids (no methionine), ^35 S labeled methionine, DNA template (either pBR322 or pUC119), and either DMSO (control) or the novel tetracycline compound to be tested ("novel TC") dissolved in DMSO.
(§6) The reactions are incubated for 30 minutes at 37° C. Timing is initiated with the addition of the S30 extract, the last component to be added. After 30 minutes, 2.5 μl of the reaction is removed and mixed with 0.5 ml of 1N NaOH to destroy RNA and tRNA. Two to three ml of 25% trichloroacetic acid is added and the mixture incubated at room temperature for 15 minutes. The trichloroacetic acid precipitated material is collected on Whatman GF/C filters and washed with a solution of 10% trichloroacetic acid. The filters are dried and the retained radioactivity, representing incorporation of ^35 S-methionine into polypeptides, is counted using standard liquid scintillation methods.
(§7) The percent inhibition (P.I.) of protein synthesis is determined to be: [formula]

[20] = test system: S30 extract from derivative of E. coli MRE 600 containing the tetM determinant; assay: E. coli in vitro cell free protein translation system, TetM S30; assay type: biochemical; conditions: for % Inhibition TetM S30: 35S-methionine incorporation, 30 minutes at 37° C.
Source text: as §3, §4, §5, §6, §7

[21] = agar dilution, Muller-Hinton II agar, 18 hours at 35° C., S. aureus SMITH (MP) (sensitive), read-out: MIC
[22] = agar dilution, Muller-Hinton II agar, 18 hours at 35° C., S. haemol. AVAH 88-3, read-out: MIC
[23] = ATCC25922, agar dilution, Muller-Hinton II agar, 18 hours at 35° C., E. coli ATCC 25922, read-out: MIC
[24] = agar dilution, Muller-Hinton II agar, 18 hours at 35° C., S. aureus UBMS 88-4 (sensitive), read-out: MIC
[25] = agar dilution, Muller-Hinton II agar, 18 hours at 35° C., S. faecal. ATCC 29212, read-out: MIC
[26] = agar dilution, Muller-Hinton II agar, 18 hours at 35° C., Enteroc. spp. 12201, read-out: MIC
[27] = agar dilution, Muller-Hinton II agar, 18 hours at 35° C., S. aureus UBMS 90-3 (sensitive), read-out: MIC

Compound | MIC ([2]; 18 h) [µg/mL] | MIC ([4]; 18 h) [µg/mL] | MIC [5, 21] [µg/mL] | MIC [6] [µg/mL] | MIC [7, 22] [µg/mL] | MIC [8] [µg/mL] | MIC ([9]; 18 h) [µg/mL] | MIC [10, 23] [µg/mL] | MIC [11, 24] [µg/mL] | MIC ([12]; 18 h) [µg/mL] | MIC [13] [µg/mL] | MIC [14] [µg/mL] | MIC [15] [µg/mL] | MIC [16] [µg/mL] | MIC [17] [µg/mL] | MIC [18] [µg/mL] | MIC ([3]; 18 h) [µg/mL] | MIC [9, 25] [µg/mL] | MIC ([10]; ATCC25922, 18 h) [µg/mL] | MIC [12, 26] [µg/mL] | also measured
CN(C)[C@@H]1C(O)=C(C(N)=O)C(=O)[C@@]2(O)C(O)=C3C(=O)c4c(O)cc(Cl)c(N)c4CC3CC12 (some centres unmarked) [Compound C, 7-Amino-8-chloro-4-(dimethylamino)-1,4-4a,5,5a,6,11,12a-octahydro-3,10,12,12a-tetrahydroxy-1,11-dioxo-2-naphthacenecarboxamide hydrochloride] | > 32 | > 32 | 0.25 | 4 | 1 | 0.12 | 8 | 2 | 0.5 | 32 | 32 | 8 | > 32 | 32 | > 32 | 32 | – | – | – | – | MIC ([1]; 18 h): 0.12 µg/mL; MIC ([3]; agar dilution, Muller-Hinton II agar, 18 hours at 35° C., E. coli UBMS 88-2 (sensitive), read-out: MIC): 2 µg/mL
CN(C)[C@@H]1C(O)=C(C(N)=O)C(=O)[C@@]2(O)C(O)=C3C(=O)c4c(O)cc(Cl)cc4CC3CC12 (some centres unmarked) [Compound E, 8-Chloro-4-(dimethylamino)-1,4,4a,5,5a,6-11,12a-octahydro-3,10,12,12a-tetrahydroxy-1,11-dioxo-2-naphthacenecarboxamide sulfate] | 4 | 4 | 0.12 | 16 | 0.5 | 0.03 | – | – | – | – | 16 | 1 | 4 | 2 | > 32 | 2 | 16 | 2 | 8 | 1 | MIC ([11]; 18 h): 0.25 µg/mL
CN(C)[C@@H]1C(O)=C(C(N)=O)C(=O)[C@@]2(O)C(O)=C3C(=O)c4c(O)cc(Cl)c([N+]#N)c4CC3CC12 (stereo partly drawn) [D, 8-(Aminocarbonyl)-2-chloro-10-(dimethylamino)-5,6a,10,10a,11,11a,12-octahydro-5,7-dioxo-l-naphthacenediazonium chloride] | – | – | 0.5 | 32 | – | 0.12 | – | 16 | – | – | 32 | 2 | 8 | 4 | > 32 | 4 | 32 | 2 | – | 2 | MIC ([2]; agar dilution, Muller-Hinton II agar, 18 hours at 35° C., S. aureus IVES 2943 (meth. resistant), read-out: MIC): 16 µg/mL; MIC ([4]; agar dilution, Muller-Hinton II agar, 18 hours at 35° C., S. aureus IVES 1983 (MP) (meth. resistant), read-out: MIC): 16 µg/mL; MIC ([7]; 18 h): 1 µg/mL
CN(C)[C@@H]1C(O)=C(C(N)=O)C(=O)[C@@]2(O)C(O)=C3C(=O)c4c(cc(Cl)c(N)c4O)CC3CC12 (some centres unmarked) [G, 9-Amino-8-chloro-4-(dimethylamino)-1,4,-4a,5,5a,6,11,12a-octahydro-3,10,12,12a-tetrahydroxy-1,11-dioxo-2-naphthacenecarboxamide] | 8 (≈ 17.2 µM) | 8 (≈ 17.2 µM) | < 0.015 | 4 (≈ 8.62 µM) | 0.12 (≈ 0.259 µM) | < 0.015 | 0.25 (≈ 0.539 µM) | – | < 0.015 | 2 (≈ 4.31 µM) | – | 0.25 (≈ 0.539 µM) | 2 (≈ 4.31 µM) | 1 (≈ 2.16 µM) | > 32 | 1 (≈ 2.16 µM) | 4 (≈ 8.62 µM) | – | 1 (≈ 2.16 µM) | – | MIC [1, 27]: < 0.015 µg/mL
COC(=O)Nc1c(Cl)cc2c(c1O)C(=O)C1=C(O)[C@]3(O)C(=O)C(C(N)=O)=C(O)[C@@H](N(C)C)C3CC1C2 (stereo partly drawn) [I, 7S-(7alpha, 10aalpha)!- 9-(Aminocarbonyl)-3-chloro-7-(dimethylamino)-5,5a,6-6a,7,10,10a,12-octahydro-1,8,10a,11-tetrahydroxy-10,12-dioxo-2-naphthacenyl!-carbamic acid methyl ester] | 4 (≈ 7.66 µM) | 4 (≈ 7.66 µM) | – | 16 (≈ 30.7 µM) | – | < 0.015 | 0.5 (≈ 0.958 µM) | – | – | 2 (≈ 3.83 µM) | 8 (≈ 15.3 µM) | 0.5 (≈ 0.958 µM) | 2 (≈ 3.83 µM) | 0.5 (≈ 0.958 µM) | > 32 | 0.5 (≈ 0.958 µM) | – | – | 8 (≈ 15.3 µM) | – | MIC ([1]; 18 h): 0.06 µg/mL (≈ 0.115 µM); MIC ([5]; 18 h): 0.06 µg/mL (≈ 0.115 µM); MIC ([7]; 18 h): 0.5 µg/mL (≈ 0.958 µM); MIC ([11]; 18 h): 0.06 µg/mL (≈ 0.115 µM)
CN(C)c1ccc(O)c2c1C[C@H]1C[C@H]3[C@H](N(C)C)C(O)=C(C(N)=O)C(=O)[C@@]3(O)C(O)=C1C2=O [L, Minocycline hydrochloride, reference compound] | 4 | 4 | 0.03 | 1 | – | ≤ 0.015 | – | 0.5 | 0.03 | – | 8 | 4 | – | 4 | 16 | 4 | 0.25 | 1 | – | 8 | % Inhibition Wild Type S30 ([19]; Conc. 0.1 mg/ml): 66%; % Inhibition Wild Type S30 ([19]; Conc. 0.3 mg/ml, hydrochloride): 91%; % Inhibition Wild Type S30 ([19]; Conc. 1.0 mg/ml): 90%; inhibition of protein synthesis, in words ([19]; cell-free extracts from tetracycline susceptible strain MRE600): inhibited; MIC [1, 27]: 0.03 µg/mL; % Inhibition TetM S30 ([20]; Conc. 0.1 mg/ml): 0%; % Inhibition TetM S30 ([20]; Conc. 0.3 mg/ml): 0%; % Inhibition TetM S30 ([20]; Conc. 1.0 mg/ml, hydrochloride): 19%; % Inhibition TetM S30 ([20]; Conc. 1.0 mg/ml, listed as minocycline, hydrochloride): less than 20%; inhibition of protein synthesis, in words ([20]; cell-free extracts from strain MRE600 (tetM)): resistant
